Laboratory results as given in patent US9499550B2 (BRISTOL-MYERS SQUIBB COMPANY, priority 2012, dated 2016).
Read-outs that look alike come from different tables or passages of the source.

Experiments:
[1] = test system: HCV genotype 1b (Con1) replicon in HUH-7 cells; experiment: HCV replicon luciferase reporter assay, genotype 1b; format: cell-based; conditions: Hepatitis C virus, Huh-7, 72 h, HCV genotype 1b replicon luciferase, 3 days incubation
In short: (§1)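 Replicon inhibition for both genotypes was measured as Renilla luciferase signal (EnduRen, 7.5 μM final, 2 h) after 3-day, 37° C exposure of replicon-bearing HUH-7 cells in 4% FCS DMEM, 0.5% DMSO. The 1b construct carries S1179I; the 1a H77 construct carries P1496L and S2204I. Twenty-point, 3-fold dilutions were fitted four-parametrically for EC50, and CC50 was taken from multiplexed Cell Titer-Blue.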

[2] = test system: HCV genotype 1a (H77 strain) replicon in HUH-7 cells; experiment: HCV replicon luciferase reporter assay, genotype 1a; format: cell-based; conditions: Hepatitis C virus, Huh-7, 72 h, HCV genotype 1a replicon luciferase, 3 days incubation
In short: as §1

SMILES	EC50 ([1]; read-out: LE_1b (EC50, range))	EC50 ([2]; read-out: LE_1a (EC50, range))	EC50 ([1]; read-out: LE_1b (EC50))	EC50 ([2]; read-out: LE_1a (EC50))
[2H]C([2H])([2H])C(OC(=O)N[C@@H]1C(=O)N2C[C@H](Oc3nccc4c5c(ccc34)N(C)CCO5)C[C@H]2C(=O)N[C@]2(C(=O)NS(=O)(=O)C3CC3)C[C@H]2/C=C\CC[C@H](C)C[C@H]1CC)(C([2H])([2H])[2H])C(F)(F)F [Compound 5311, 1,1,1,3,3,3-hexadeutero-2-(trifluoromethyl)propan-2-yl((2R,6S,7R,9S,13aS,14aR,16aS,Z)-14a-((cyclopropylsulfonyl)carbamoyl)-7-ethyl-9-methyl-2-((4-methyl-3,4-dihydro-2H-[1,4]oxazino[2,3-f]isoquinolin-7-yl)oxy)-5,16-dioxo-1,2,3,5,6,7,8,9,10,11,13a,14,14a,15,16,16a-hexadecahydrocyclopropa[e]pyrrolo[1,2-a][1,4]diazacyclopentadecin-6-yl)carbamate]	< 5.46 nM	< 5.46 nM		
[2H]C([2H])([2H])C(OC(=O)N[C@@H]1C(=O)N2C[C@H](Oc3nccc4c5c(ccc34)N(C)CCO5)C[C@H]2C(=O)N[C@]2(C(=O)NS(=O)(=O)C3CC3)C[C@H]2/C=C\CC[C@@H](C)C[C@H]1CC)(C([2H])([2H])[2H])C(F)(F)F [Compound 5312, 1,1,1,3,3,3-hexadeutero-2-(trifluoromethyl)propan-2-yl((2R,6S,7R,9R,13aS,14aR,16aS,Z)-14a-((cyclopropylsulfonyl)carbamoyl)-7-ethyl-9-methyl-2-((4-methyl-3,4-dihydro-2H-[1,4]oxazino[2,3-f]isoquinolin-7-yl)oxy)-5,16-dioxo-1,2,3,5,6,7,8,9,10,11,13a,14,14a,15,16,16a-hexadecahydrocyclopropa[e]pyrrolo[1,2-a][1,4]diazacyclopentadecin-6-yl)carbamate]	< 5.46 nM	< 5.46 nM		
CC[C@@H]1C[C@@H](C)CC/C=C\[C@@H]2C[C@@]2(C(=O)NS(=O)(=O)C2CC2)NC(=O)[C@@H]2C[C@@H](Oc3nccc4c5c(ccc34)N(C)CCO5)CN2C(=O)[C@H]1NC(=O)O[C@@H]1C[C@@H]2C[C@@H]2C1 [Compound 5313, (1R,3r,5 S)-bicyclo[3.1.0]hexan-3-yl((2R,6S,7R,9S,13aS,14aR,16aS,Z)-14a-((cyclopropylsulfonyl)carbamoyl)-7-ethyl-9-methyl-2-((4-methyl-3,4-dihydro-2H-[1,4]oxazino[2,3-f]isoquinolin-7-yl)oxy)-5,16-dioxo-1,2,3,5,6,7,8,9,10,11,13a,14,14a,15,16,16a-hexadecahydrocyclopropa[e]pyrrolo[1,2-a][1,4]diazacyclopentadecin-6-yl)carbamate]	< 5.46 nM	< 5.46 nM		
CC[C@@H]1C[C@H](C)CC/C=C\[C@@H]2C[C@@]2(C(=O)NS(=O)(=O)C2CC2)NC(=O)[C@@H]2C[C@@H](Oc3nccc4c5c(ccc34)N(C)CCO5)CN2C(=O)[C@H]1NC(=O)O[C@@H]1C[C@@H]2C[C@@H]2C1 [Compound 5314, (1R,3r,5S)-bicyclo[3.1.0]hexan-3-yl((2R,6S,7R,9R,13aS,14aR,16aS,Z)-14a-((cyclopropylsulfonyl)carbamoyl)-7-ethyl-9-methyl-2-((4-methyl-3,4-dihydro-2H-[1,4]oxazino[2,3-f]isoquinolin-7-yl)oxy)-5,16-dioxo-1,2,3,5,6,7,8,9,10,11,13a,14,14a,15,16,16a-hexadecahydrocyclopropa[e]pyrrolo[1,2-a][1,4]diazacyclopentadecin-6-yl)carbamate]	< 5.46 nM	< 5.46 nM	1.06 nM	1.59 nM
CC[C@@H]1C[C@@H](C)CC/C=C\[C@@H]2C[C@@]2(C(=O)NS(=O)(=O)C2CC2)NC(=O)[C@@H]2C[C@@H](Oc3nccc4c5c(ccc34)N(C)CCO5)CN2C(=O)[C@H]1NC(=O)NC(C)(C)C [Compound 5315, (2R,6S,7R,9S,13aS,14aR,16aS,Z)-6-(3-(tert-butyl)ureido)-N-(cyclopropylsulfonyl)-7-ethyl-9-methyl-2-((4-methyl-3,4-dihydro-2H-[1,4]oxazino[2,3-f]isoquinolin-7-yl)oxy)-5,16-dioxo-1,2,3,5,6,7,8,9,10,11,13a,14,14a,15,16,16a-hexadecahydrocyclopropa[e]pyrrolo[1,2-a][1,4]diazacyclopentadecine-14a-carboxamide]	4.82 to 103 nM	4.82 to 103 nM		
